These compounds were tested against T1, β-catenin/BCL9 PPI (Homo sapiens, UniProt P35222) (assay: AlphaScreen competitive inhibition assay of the β-catenin/BCL9 PPI). Details: Table 1, inhibitors 1-14; read-out: Ki.
T1 construct: Full-length β-catenin (residues 1-781) were cloned into a pET-28b vector; made in house; host or cells: E. coli BL21 DE3 (β-catenin); BCL9 peptide synthesized by InnoPep Inc
T1 sequence (P35222 1-781): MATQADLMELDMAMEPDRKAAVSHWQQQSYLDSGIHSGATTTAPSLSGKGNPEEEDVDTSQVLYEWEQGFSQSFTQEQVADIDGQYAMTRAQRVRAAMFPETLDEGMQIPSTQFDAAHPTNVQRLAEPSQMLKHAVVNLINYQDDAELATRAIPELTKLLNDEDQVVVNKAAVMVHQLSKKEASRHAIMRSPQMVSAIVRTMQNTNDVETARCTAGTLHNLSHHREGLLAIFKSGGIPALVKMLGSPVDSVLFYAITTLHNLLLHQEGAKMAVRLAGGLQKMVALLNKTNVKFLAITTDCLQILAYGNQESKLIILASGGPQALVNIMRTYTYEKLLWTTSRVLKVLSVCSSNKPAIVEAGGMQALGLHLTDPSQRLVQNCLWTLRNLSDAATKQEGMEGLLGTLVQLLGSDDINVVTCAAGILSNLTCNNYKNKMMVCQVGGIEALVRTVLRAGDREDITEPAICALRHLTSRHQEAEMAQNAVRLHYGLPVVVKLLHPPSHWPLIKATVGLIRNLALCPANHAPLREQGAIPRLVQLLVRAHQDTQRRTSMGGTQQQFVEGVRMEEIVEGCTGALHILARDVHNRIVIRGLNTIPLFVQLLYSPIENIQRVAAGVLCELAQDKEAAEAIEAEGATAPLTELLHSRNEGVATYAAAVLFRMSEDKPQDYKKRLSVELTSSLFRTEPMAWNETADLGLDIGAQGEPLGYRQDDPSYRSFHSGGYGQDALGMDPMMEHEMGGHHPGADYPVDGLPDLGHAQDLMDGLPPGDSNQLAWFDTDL
Assay type: binding
Description: AlphaScreen Assays of β-Catenin and BCL9 Interaction. Experiments were performed in white opaque 384-well plates from PerkinElmer (Waltham, Mass.), and the samples were read on a Synergy 2 plate reader (Biotek, Winooski, Vt.) with excitation at 680 nm and emission at 570 nm. The standard AlphaScreen protocol was used with a sensitivity setting of 200. All dilutions were made in 1× assay buffer containing 25 mM Hepes (pH 7.4), 100 mM NaCl, 0.01% Triton X-100 and 0.1% BSA to minimize nonspecific interactions.
For the β-catenin/BCL9 assay, 5 nM biotinylated BCL9 and 40 nM His6-tagged β-catenin were incubated in assay buffer at 4° C. for 30 min. For the β-catenin/E-cadherin assay, 10 nM biotinylated human E-cadherin, and 40 nM His6-tagged human β-catenin were added and incubated in assay buffer at 4° C. for 30 min. Different concentrations of the tested inhibitor were added and incubated in 20 μL assay buffer at 4° C. for another 1 h. All of the assay plates were covered and gently mixed on an orbital shaker. The donor and acceptor beads were then added to the plates to a final concentration of 10 μg/mL in […]. The mixture was incubated for 1 h at 4° C. before detection. The IC50 value was determined by nonlinear least-square analysis of GraphPad Prism 5.0. […] All of the experiments were performed in triplicate and carried out in the presence of 1% DMSO for small-molecule inhibitors. Each compound was assayed at least by two independent experiments. The results were expressed as mean±standard deviation. The inhibitor selectivity for β-catenin/BCL9 over β-catenin/E-canderin interactions was defined as the ratio of the respective Ki value of β-catenin/E-cadherin interactions over that of β-catenin/BCL9 interactions.

| Structure (SMILES) | Ki [µM] |
| --- | --- |
| CC(C)c1ccc(COC(=O)[C@@H]2CCCN(c3cccc(OC(C)(C)C(=O)O)c3)C2)cc1 [Compound 1, (R)-2-(3-(3-(((4-isopropylbenzyl)oxy)carbonyl)piperidin-1-yl)phenoxy)-2-methylpropanoic acid] | > 90 |
| CC(C)c1ccc(COC(=O)[C@H]2CCCN(c3cccc(OC(C)(C)C(=O)O)c3)C2)cc1 [Compound 2, (S)-2-(3-(3-(((4-isopropylbenzyl)oxy)carbonyl)piperidin-1-yl)phenoxy)-2-methylpropanoic acid] | > 90 |
| CC(C)c1ccc(CNC(=O)[C@@H]2CCCN(c3cccc(OC(C)(C)C(=O)O)c3)C2)cc1 [Compound 3, (R)-2-(3-(3-((4-isopropylbenzyl)carbamoyl)piperidin-1-yl)phenoxy)-2-methylpropanoic acid] | ≤ 50 |
| CC(C)c1ccc(CNC(=O)[C@H]2CCCN(c3cccc(OC(C)(C)C(=O)O)c3)C2)cc1 [Compound 4, (S)-2-(3-(3-((4-isopropylbenzyl)carbamoyl)piperidin-1-yl)phenoxy)-2-methylpropanoic acid] | > 90 |
| CC(C)c1ccc(CN(C)C(=O)[C@@H]2CCCN(c3cccc(OC(C)(C)C(=O)O)c3)C2)cc1 [Compound 5, (R)-2-(3-(3-((4-isopropylbenzyl)(methyl)carbamoyl)piperidin-1-yl)phenoxy)-2-methylpropanoic acid] | < 50 |
| CCN(Cc1ccc(C(C)C)cc1)C(=O)[C@@H]1CCCN(c2cccc(OC(C)(C)C(=O)O)c2)C1 [Compound 7, (R)-2-(3-(3-(ethyl(4-isopropylbenzyl)carbamoyl)piperidin-1-yl)phenoxy)-2-methylpropanoic acid] | > 90 |
| CCN(Cc1ccc(C(C)C)cc1)C(=O)[C@H]1CCCN(c2cccc(OC(C)(C)C(=O)O)c2)C1 [Compound 8, (S)-2-(3-(3-(ethyl(4-isopropylbenzyl)carbamoyl)piperidin-1-yl)phenoxy)-2-methylpropanoic acid] | > 90 |
| CC(C)c1ccc(CN(C(=O)[C@@H]2CCCN(c3cccc(OC(C)(C)C(=O)O)c3)C2)C(C)C)cc1 [Compound 9, (R)-2-(3-(3-(isopropyl(4-isopropylbenzyl)carbamoyl)piperidin-1-yl)phenoxy)-2-methylpropanoic acid] | > 90 |
| CC(C)c1ccc(CN(C(=O)[C@H]2CCCN(c3cccc(OC(C)(C)C(=O)O)c3)C2)C(C)C)cc1 [Compound 10, (S)-2-(3-(3-(isopropyl(4-isopropylbenzyl)carbamoyl)piperidin-1-yl)phenoxy)-2-methylpropanoic acid] | ≤ 50 |
| CC(C)c1ccc(CN(C(=O)[C@@H]2CCCN(c3cccc(OC(C)(C)C(=O)O)c3)C2)C2CC2)cc1 [Compound 11, (R)-2-(3-(3-(cyclopropyl(4-isopropylbenzyl)carbamoyl)piperidin-1-yl)phenoxy)-2-methylpropanoic acid] | ≤ 50 |
| CC(C)c1ccc(CN(C(=O)[C@H]2CCCN(c3cccc(OC(C)(C)C(=O)O)c3)C2)C2CC2)cc1 [Compound 12, (S)-2-(3-(3-(cyclopropyl(4-isopropylbenzyl)carbamoyl)piperidin-1-yl)phenoxy)-2-methylpropanoic acid] | > 90 |
| CC(C)c1ccc(CCNC(=O)[C@@H]2CCCN(c3cccc(OC(C)(C)C(=O)O)c3)C2)cc1 [Compound 13, (R)-2-(3-(3-((4-isopropylphenethyl)carbamoyl)piperidin-1-yl)phenoxy)-2-methylpropanoic acid] | ≤ 50 |
| CC(C)c1ccc(CCNC(=O)[C@H]2CCCN(c3cccc(OC(C)(C)C(=O)O)c3)C2)cc1 [Compound 14, (S)-2-(3-(3-((4-isopropylphenethyl)carbamoyl)piperidin-1-yl)phenoxy)-2-methylpropanoic acid] | ≤ 90 |

Same assay, conditions: Table 9, inhibitors 93-98, racemic; read-out: Ki

| Structure (SMILES) | Ki [µM] |
| --- | --- |
| CC(C)c1ccc(CNC(=O)C2CCCN(c3cccc(OC(C)(C)C(=O)O)c3)C2)cc1 (racemic) [Compound 93, 2-(3-(3-((4-isopropylbenzyl)carbamoyl)piperidin-1-yl)phenoxy)-2-methylpropanoic acid] | ≤ 90 |
| CC(C)c1ccc(CN(C)C(=O)C2CCCN(c3cccc(OC(C)(C)C(=O)O)c3)C2)cc1 (racemic) [Compound 95, 2-(3-(3-((4-isopropylbenzyl)(methyl)carbamoyl)piperidin-1-yl)phenoxy)-2-methylpropanoic acid] | ≤ 90 |
| CC(C)c1ccc(CN(C(=O)C2CCCN(c3cccc(OC(C)(C)C(=O)O)c3)C2)C(C)C)cc1 (racemic) [Compound 97, 2-(3-(3-(isopropyl(4-isopropylbenzyl)carbamoyl)piperidin-1-yl)phenoxy)-2-methylpropanoic acid] | ≤ 90 |

Same assay, conditions: Table 10, inhibitors 99-106, racemic; read-out: Ki ± SD

| Structure (SMILES) | Ki [µM] |
| --- | --- |
| CC(C)(Oc1cccc(N2CCCC(C(=O)N(Cc3ccc(-c4cn[nH]c4)cc3)C3CC3)C2)c1)C(=O)O (racemic) [Compound 99, 2-(3-(3-((4-(1H-pyrazol-4-yl)benzyl)(cyclopropyl)carbamoyl)piperidin-1-yl)phenoxy)-2-methylpropanoic acid] | > 90 |
| Cn1cc(-c2ccc(CN(C(=O)C3CCCN(c4cccc(OC(C)(C)C(=O)O)c4)C3)C3CC3)cc2)cn1 (racemic) [Compound 100, 2-(3-(3-(cyclopropyl(4-(1-methyl-1H-pyrazol-4-yl)benzyl)carbamoyl)piperidin-1-yl)phenoxy)-2-methylpropanoic acid] | > 90 |
| CC(C)(Oc1cccc(N2CCCC(C(=O)N(Cc3ccc(-c4ccn[nH]4)cc3)C3CC3)C2)c1)C(=O)O (racemic) [Compound 101, 2-(3-(3-((4-(1H-pyrazol-5-yl)benzyl)(cyclopropyl)carbamoyl)piperidin-1-yl)phenoxy)-2-methylpropanoic acid] | ≤ 90 |
| Cn1nccc1-c1ccc(CN(C(=O)C2CCCN(c3cccc(OC(C)(C)C(=O)O)c3)C2)C2CC2)cc1 (racemic) [Compound 102, 2-(3-(3-(cyclopropyl(4-(1-methyl-1H-pyrazol-5-yl)benzyl)carbamoyl)piperidin-1-yl)phenoxy)-2-methylpropanoic acid] | > 90 |
| CC(C)(Oc1cccc(N2CCCC(C(=O)N(Cc3ccc(-c4cccs4)cc3)C3CC3)C2)c1)C(=O)O (racemic) [Compound 103, 2-(3-(3-(cyclopropyl(4-(thiophen-2-yl)benzyl)carbamoyl)piperidin-1-yl)phenoxy)-2-methylpropanoic acid] | ≤ 30 |
| CC(C)(Oc1cccc(N2CCCC(C(=O)N(Cc3ccc(-c4ccsc4)cc3)C3CC3)C2)c1)C(=O)O (racemic) [Compound 104, 2-(3-(3-(cyclopropyl(4-(thiophen-3-yl)benzyl)carbamoyl)piperidin-1-yl)phenoxy)-2-methylpropanoic acid] | ≤ 30 |
| CC(C)(Oc1cccc(N2CCCC(C(=O)N(Cc3ccc(-c4ccco4)cc3)C3CC3)C2)c1)C(=O)O (racemic) [Compound 105, 2-(3-(3-(cyclopropyl(4-(furan-2-yl)benzyl)carbamoyl)piperidin-1-yl)phenoxy)-2-methylpropanoic acid] | ≤ 90 |
| CC(C)(Oc1cccc(N2CCCC(C(=O)N(Cc3ccc(-c4ccoc4)cc3)C3CC3)C2)c1)C(=O)O (racemic) [Compound 106, 2-(3-(3-(cyclopropyl(4-(furan-3-yl)benzyl)carbamoyl)piperidin-1-yl)phenoxy)-2-methylpropanoic acid] | > 90 |

Same assay, conditions: Table 11, inhibitors 107-108, racemic; read-out: Ki ± SD

| Structure (SMILES) | Ki [µM] |
| --- | --- |
| COC(=O)C(C)(C)Oc1cccc(N2CCCC(C(=O)N(Cc3ccc(-c4cccs4)cc3)C3CC3)C2)c1 (racemic) [Compound 107, methyl 2-(3-(3-(cyclopropyl(4-(thiophen-2-yl)benzyl)carbamoyl)piperidin-1-yl)phenoxy)-2-methylpropanoate] | > 90 |

Reference: US20220411372A1, “SMALL-MOLECULE INHIBITORS FOR THE B-CATENIN/B-CELL LYMPHOMA 9 PROTEIN-PROTEIN INTERACTION” (H. Lee Moffitt Cancer Center and Research Institute, Inc., priority 2019, published 2022)
